These results are taken from patent US10030004B2, “Compounds and methods of use” (Medivation Technologies LLC, priority 2014, dated 2018).

Where two headings read alike, the source gives them in different places.

A short description of data set [1]: Pharmacokinetics and bioavailability in male mice after a single dose. It is filed as in vivo. The settings on record: for AUC(0-t) / Cmax / Tmax / bioavailability / clearance / half-life: mouse, plasma; for half-life: read-out: Terminal t1/2 (converted).
The target in data set [2] is ALK3 (BMPR1A) (Homo sapiens (Human), UniProt P36894). Description: In vitro kinase assay, ALK3. In kind it is biochemical. The following applies: read-out: Inhibition of ALK3 IC50.
Sequence of ALK3 (BMPR1A) (P36894 24-532): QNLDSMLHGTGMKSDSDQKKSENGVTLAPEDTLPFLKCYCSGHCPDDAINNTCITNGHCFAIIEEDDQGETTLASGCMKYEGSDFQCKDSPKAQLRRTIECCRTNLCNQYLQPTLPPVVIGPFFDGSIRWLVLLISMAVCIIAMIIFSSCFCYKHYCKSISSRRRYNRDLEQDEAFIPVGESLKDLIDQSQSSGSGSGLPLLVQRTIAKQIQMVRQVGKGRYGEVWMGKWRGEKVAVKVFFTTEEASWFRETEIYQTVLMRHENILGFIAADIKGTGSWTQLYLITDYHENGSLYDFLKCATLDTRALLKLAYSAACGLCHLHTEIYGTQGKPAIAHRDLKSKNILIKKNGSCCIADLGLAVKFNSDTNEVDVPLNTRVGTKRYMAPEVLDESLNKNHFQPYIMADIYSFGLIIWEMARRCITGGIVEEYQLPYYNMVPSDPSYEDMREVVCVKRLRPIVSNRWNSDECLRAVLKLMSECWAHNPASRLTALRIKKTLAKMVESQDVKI
Data set [3] is described as follows: Plasma and brain concentrations at 0.5 and 1 h in mice. It is filed as in vivo. The settings on record: for concentration at 0.5 h / concentration at 1 h: male, mouse.
The target of data set [4] is ALK2 (ACVR1) (Homo sapiens (Human), UniProt Q04771). As to the kind of experiment: In vitro kinase assay, ALK2. It is filed as biochemical. The following applies: read-out: Inhibition of ALK2 IC50.
Sequence of ALK2 (ACVR1) (Q04771 21-509): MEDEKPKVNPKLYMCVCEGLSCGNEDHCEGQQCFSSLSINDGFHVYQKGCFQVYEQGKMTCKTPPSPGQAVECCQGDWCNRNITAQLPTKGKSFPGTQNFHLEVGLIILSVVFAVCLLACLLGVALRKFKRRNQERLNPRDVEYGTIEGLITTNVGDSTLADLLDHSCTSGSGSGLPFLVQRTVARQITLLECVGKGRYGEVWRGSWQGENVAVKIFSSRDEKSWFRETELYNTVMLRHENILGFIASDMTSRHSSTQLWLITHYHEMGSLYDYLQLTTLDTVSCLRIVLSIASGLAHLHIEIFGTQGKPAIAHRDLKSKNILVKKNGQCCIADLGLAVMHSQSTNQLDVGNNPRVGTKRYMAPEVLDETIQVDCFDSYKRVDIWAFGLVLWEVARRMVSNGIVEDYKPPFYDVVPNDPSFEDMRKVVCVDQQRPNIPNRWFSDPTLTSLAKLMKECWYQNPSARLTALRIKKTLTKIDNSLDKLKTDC
Data set [5] deals with ALK6 (BMPR1B) (Homo sapiens (Human), UniProt O00238). Description: In vitro kinase assay, ALK6. It is filed as biochemical. The following applies: 10 μM ATP; read-out: Inhibition of ALK6 IC50.
Sequence of ALK6 (BMPR1B) (O00238 14-502): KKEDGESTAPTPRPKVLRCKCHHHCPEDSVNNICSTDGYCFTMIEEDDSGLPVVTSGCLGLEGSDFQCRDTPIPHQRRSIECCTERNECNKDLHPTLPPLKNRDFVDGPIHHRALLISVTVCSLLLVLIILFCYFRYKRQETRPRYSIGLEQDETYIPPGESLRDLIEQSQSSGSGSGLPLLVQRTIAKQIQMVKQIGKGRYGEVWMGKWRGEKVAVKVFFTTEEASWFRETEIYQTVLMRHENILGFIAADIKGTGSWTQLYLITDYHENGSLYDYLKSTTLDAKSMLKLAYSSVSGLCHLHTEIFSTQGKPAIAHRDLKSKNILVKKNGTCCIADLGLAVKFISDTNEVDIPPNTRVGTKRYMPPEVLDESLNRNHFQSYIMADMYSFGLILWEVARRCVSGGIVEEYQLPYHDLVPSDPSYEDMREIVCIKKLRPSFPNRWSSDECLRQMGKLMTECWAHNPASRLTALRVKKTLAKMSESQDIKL
Where [6] appears, read: brain, 2 mg/kg, IV, 0.5 h, read-out: Brain Concentration.
[7] abbreviates: brain, 2 mg/kg, IV, 1 h, read-out: Brain Concentration.
Setting [8] is: plasma, 2 mg/kg, IV, 0.5 h, read-out: Plasma Concentration.
Where [9] appears, read: plasma, 2 mg/kg, IV, 1 h, read-out: Plasma Concentration.
Setting [10] is: plasma, 10 mg/kg, PO, 0.5 h, read-out: Plasma Concentration.
Setting [11] is: plasma, 10 mg/kg, PO, 1 h, read-out: Plasma Concentration.
[12] abbreviates: brain, 10 mg/kg, PO, 0.5 h, read-out: Brain Concentration.
Setting [13] is: brain, 10 mg/kg, PO, 1 h, read-out: Brain Concentration.

In data set [1] (intravenous, 2 mg/kg), `CC(=O)NCCNC(=O)c1cnccc1Nc1cc(-c2cc(Cl)ccc2F)ncc1C(C)C` [compound 14, N-(2-acetamidoethyl)-4-[[2-(5-chloro-2-fluoro-phenyl)-5-isopropyl-4-pyridyl]amino]pyridine-3-carboxamide] yielded a V of 3.86 L/kg, an AUC(0-t) of 1.57 µM·h and a Cmax of 3010 nM. Further, in data set [1] (oral, 10 mg/kg), the exposure AUC(0-t) stood at 2.54 µM·h, the Cmax was determined as 1880 nM, the Tmax came to 0.5 h and the bioavailability worked out at 32.5%.
As to `COc1cnc(-c2cc(Cl)ccc2F)cc1Nc1ccncc1C(=O)NC[C@H](C)O` (single isomer, unassigned) [13a], in data set [2], the IC50 is over 100 µM. In addition, in data set [1] (intravenous, 2 mg/kg), the V worked out at 3.72 L/kg, the AUC(0-t) was determined as 1.56 µM·h, the peak level (Cmax) was 1420 nM and the clearance is 20.7 mL/min/kg. The half-life in data set [1] (intravenous, 2 mg/kg) is 2.09 h. Further, in data set [1] (oral, 10 mg/kg), the AUC(0-t) came out at 5.64 µM·h, the highest level (Cmax) was 1600 nM, the Tmax turned out to be 0.25 h and the bioavailability turned out to be 72.3%. Besides, in data set [1] (oral, 10 mg/kg), the half-life was 2.85 h.
On to `CC(C)c1cnc(-c2cc(Cl)ccc2F)cc1Nc1ccncc1C(=O)NC[C@H](C)O` (single isomer, unassigned) [2a], for which the concentration at 0.5 h in data set [3] (brain, IV (2 mg/kg), 0.5 h, read-out: Brain concentration) was found to be 73.2 ng/mL; in data set [3] (brain, PO (10 mg/kg), 0.5 h, read-out: Brain concentration) it was 202 ng/mL; in data set [3] (plasma, IV (2 mg/kg), 0.5 h, read-out: Plasma concentration) it was 310 ng/mL; in data set [3] (plasma, PO (10 mg/kg), 0.5 h, read-out: Plasma concentration) it was 1570 ng/mL. Also, the concentration at 1 h in data set [3] (brain, IV (2 mg/kg), 1 h, read-out: Brain concentration) worked out at 82.4 ng/mL; in data set [3] (brain, PO (10 mg/kg), 1 h, read-out: Brain concentration), 114 ng/mL; in data set [3] (plasma, IV (2 mg/kg), 1 h, read-out: Plasma concentration), 366 ng/mL; in data set [3] (plasma, PO (10 mg/kg), 1 h, read-out: Plasma concentration), 905 ng/mL. In data set [1] (intravenous, 2 mg/kg), the V is on record as 4.14 L/kg. Also, the area under the curve AUC(0-t) is 1.19 µM·h in data set [1] (intravenous, 2 mg/kg) and 5.25 µM·h in data set [1] (oral, 10 mg/kg). Further, the Cmax was 544 nM in data set [1] (intravenous, 2 mg/kg) and 1570 nM in data set [1] (oral, 10 mg/kg). For the same compound, the time of peak concentration (Tmax) in data set [1] (oral, 10 mg/kg) is 0.5 h. Also, the bioavailability in data set [1] (oral, 10 mg/kg) came to 88%.
In data set [1] (intravenous, 2 mg/kg), `CC(C)c1cnc(-c2cc(Cl)ccc2F)cc1Nc1ncncc1C(=O)NC[C@H](C)O` (single isomer, unassigned) [12a] showed a V of 2.80 L/kg, an AUC(0-t) of 3.69 µM·h, a maximum concentration (Cmax) of 2150 nM and a clearance of 19.8 mL/min/kg. For the same compound, the half-life in data set [1] (intravenous, 2 mg/kg) was 1.63 h. Further, in data set [1] (oral, 10 mg/kg), the AUC(0-t) turned out to be 14.5 µM·h, the Cmax was 4280 nM, the time of peak concentration (Tmax) was determined as 0.5 h and the bioavailability is 78.3%. The half-life in data set [1] (oral, 10 mg/kg) is 1.72 h.
Turning to `Fc1ccc(Cl)cc1-c1cc(Nc2ccnc3[nH]ccc23)c(C2CC2)cn1` [compound 32, 2-(5-chloro-2-fluorophenyl)-5-cyclopropyl-N-{1H-pyrrolo[2,3-b]pyridin-4-yl}pyridin-4-amine], the figures for the IC50 in data set [4] and in data set [2] (10 μM ATP) were 5.84 µM and 3.33 µM, respectively.
As for `CC(C)c1cnc(-c2cc(Cl)ccc2F)cc1Nc1ncnc2[nH]ncc12` [compound 36, 2-(5-chloro-2-fluorophenyl)-5-(propan-2-yl)-N-{1H-pyrazolo[3,4-d]pyrimidin-4-yl}pyridin-4-amine], the IC50 is 8.93 µM in data set [4] and over 10 µM in data set [2].
As to `C=C(C)c1cnc(-c2cc(Cl)ccc2F)cc1Nc1ccncc1C(=O)N[C@@H](C)CO` [7a, (S)-4-(2-(5-chloro-2-fluorophenyl)-5-(prop-1-en-2-yl)pyridin-4-ylamino)-N-(1-hydroxypropan-2-yl)nicotinamide], the IC50 in data set [4] (10 μM ATP) was 10.9 µM; in data set [2] (10 μM ATP) it was over 100 µM.
As to `CC(C)c1cnc(-c2cc(Cl)ccc2F)cc1Nc1ccncc1C(=O)NCCN` [compound 19, N-(2-aminoethyl)-4-[[2-(5-chloro-2-fluoro-phenyl)-5-isopropyl-4-pyridyl]amino]pyridine-3-carboxamide], the “Brain Concentration” value in data set [3] (PO, 0.5 h) is given as “BLQ”; in data set [3] (PO, 1 h), “BLQ”. For the same compound, the concentration at 0.5 h in data set [3] (setting [6]) was determined as 4 nM; in data set [3] (setting [8]), 280 nM; in data set [3] (setting [10]), 164 nM. Besides, the concentration at 1 h turned out to be 3 nM in data set [3] (setting [7]), 183 nM in data set [3] (setting [9]) and 198 nM in data set [3] (setting [11]). The same compound displayed a V in data set [1] (intravenous, 2 mg/kg) of 21.1 L/kg. Also, the AUC(0-t) is 1.19 µM·h in data set [1] (intravenous, 2 mg/kg) and 0.927 µM·h in data set [1] (oral, 10 mg/kg). Besides, the peak concentration (Cmax) in data set [1] (intravenous, 2 mg/kg) was found to be 520 nM; in data set [1] (oral, 10 mg/kg), 198 nM. Moreover, the Tmax in data set [1] (oral, 10 mg/kg) is 1 h. Also, in data set [1] (oral, 10 mg/kg), the bioavailability worked out at 15.5%.
With `CC(C)c1cnc(-c2cc(Cl)ccc2F)cc1Nc1ncnc2[nH]ccc12` [compound 35, 2-(5-chloro-2-fluorophenyl)-5-(propan-2-yl)-N-{7H-pyrrolo[2,3-d]pyrimidin-4-yl}pyridin-4-amine], the IC50 in data set [4] is 5.45 µM.
Take `CC(C)c1cnc(-c2cc(Cl)ccc2F)cc1Nc1ccncc1C(=O)NC(CO)CO` [compound 22, 4-[[2-(5-chloro-2-fluoro-phenyl)-5-isopropyl-4-pyridyl]amino]-N-[2-hydroxy-1-(hydroxymethyl)ethyl]pyridine-3-carboxamide]: the concentration at 0.5 h in data set [3] (setting [6]) is 7 nM; in data set [3] (setting [12]), 20 nM; in data set [3] (setting [8]), 1690 nM; in data set [3] (setting [10]), 7070 nM. Moreover, the concentration at 1 h worked out at 5 nM in data set [3] (setting [7]), 15 nM in data set [3] (setting [13]), 967 nM in data set [3] (setting [9]) and 3530 nM in data set [3] (setting [11]). In data set [1] (intravenous, 2 mg/kg), this compound had a V of 2.43 L/kg. Further, the AUC(0-t) in data set [1] (intravenous, 2 mg/kg) worked out at 3.77 µM·h; in data set [1] (oral, 10 mg/kg) it was 16.2 µM·h. Also, the Cmax in data set [1] (intravenous, 2 mg/kg) was 2460 nM; in data set [1] (oral, 10 mg/kg), 7070 nM. Moreover, the half-life in data set [1] (intravenous, 2 mg/kg) is 1.53 h. In addition, in data set [1] (oral, 10 mg/kg), the Tmax was found to be 0.5 h. Besides, the bioavailability in data set [1] (oral, 10 mg/kg) is 86.6%.
For `CCc1cnc(-c2cc(Cl)ccc2F)cc1Nc1ccncc1C(=O)NC[C@H](C)O` (single isomer, unassigned) [11a], in data set [1] (intravenous, 2 mg/kg), the AUC(0-t) is 3.15 µM·h, the Cmax stood at 3610 nM, the clearance is 24.7 mL/min/kg and the half-life is 1.02 h. For the same compound, in data set [1] (oral, 10 mg/kg), the AUC(0-t) was determined as 9.79 µM·h, the Cmax came out at 3480 nM, the Tmax was determined as 0.25 h and the bioavailability amounted to 62.2%. In data set [1] (oral, 10 mg/kg), the half-life was 1.65 h.
With `C=C(C)c1cnc(-c2cc(Cl)ccc2F)cc1Nc1ncncc1C(=O)NC[C@H](C)O` [4a, (S)-4-(2-(5-chloro-2-fluorophenyl)-5-(prop-1-en-2-yl)pyridin-4-ylamino)-N-(2-hydroxypropyl)pyrimidine-5-carboxamide], in data set [4] (10 μM ATP), the IC50 came to 10.6 µM.
`C[C@H](O)CNC(=O)c1cnccc1Nc1cc(-c2cc(Cl)ccc2F)ncc1N(C)C` (single isomer, unassigned) [16a]: the concentration at 0.5 h in data set [3] (setting [6]) is 48 nM; in data set [3] (setting [12]), 48 nM; in data set [3] (setting [8]) it was 3040 nM; in data set [3] (setting [10]), 3420 nM. In addition, the concentration at 1 h came out at 19 nM in data set [3] (setting [7]), 25 nM in data set [3] (setting [13]), 1230 nM in data set [3] (setting [9]) and 1690 nM in data set [3] (setting [11]). In addition, in data set [5], the IC50 was over 1000 µM. The V in data set [1] (intravenous, 2 mg/kg) worked out at 0.967 L/kg. In addition, the AUC(0-t) in data set [1] (intravenous, 2 mg/kg) was 4.41 µM·h; in data set [1] (oral, 10 mg/kg), 7.5 µM·h. For the same compound, the Cmax amounted to 3400 nM in data set [1] (intravenous, 2 mg/kg) and 3420 nM in data set [1] (oral, 10 mg/kg). In data set [1] (intravenous, 2 mg/kg), this compound had a clearance of 17 mL/min/kg. The half-life in data set [1] (intravenous, 2 mg/kg) is 0.655 h; in data set [1] (oral, 10 mg/kg), 2.36 h. In addition, the Tmax in data set [1] (oral, 10 mg/kg) was 0.5 h. The compound also came in with a bioavailability in data set [1] (oral, 10 mg/kg) of 34.1%.
